Common to all, as to type: cell-based, mouse
Assay [1] deals with BAF complex recruitment to the modified Oct4 (Pou5f1) locus in CiA MEF cells. Put plainly: Recruitment assay (ON): rapamycin-induced BAF complex recruitment to the CiA Oct4 locus, ChIP-qPCR. The following applies: 24 hours of rapamycin treatment (3 nM); Frb-V5-tagged BAF subunit fusions; CiA MEFs. From the text: CiA mouse embryonic fibroblasts (MEFs) containing a modified Oct4 promoter (with 12×ZFHD1 and 6×GAL4 sites upstream of the promoter) were generated, cultured and maintained as previously described (Hathaway et al., “Dynamics and memory of heterochromatin in living cells,” Cell (2012) 149:1447-1460). Briefly, lentiviral delivery constructs bearing an EF1-alpha promoter and either puromycin or blasticidin resistance were generated to contain the constructs described here (FIG. 1a). To generate recruitable forms of BAF complexes, individual subunits (SS18, BRG, BAF47, BAF57) were N-terminally fused to Frb-V5. […]
Briefly, for rapid time course assays, adherent CiA MEF cells were washed once in PBS, scraped off plates into fix buffer (50 mM HEPES, 1 mM EDTA, 0.5 mM EGTA, and 100 mM NaCl), resuspended, and immediately formaldehyde fixed. […] Chromatin input was reverse crosslinked and evaluated for shearing efficiency and 100-150 μg of chromatin stock was used per immunoprecipitation reaction. […]
(§1) CiA knock-in locus-specific primers were generated with plus (+) and minus (−) direction distances calculated from the middle of the ZFHD1 recruitment domain as well as […] distances calculated from the Oct4 transcription start site (TSS). Briefly, enrichment (bound over input) averages and standard deviations were calculated over n=5 repeat experiments for each primer set. […]

The test system of assay [2] is BAF complex tethering to the Oct4 locus in CiA MEF cells. Put plainly: OFF/washout experiments: FK1012 competition of rapamycin-tethered BAF complexes, ChIP-qPCR. Here is the method: Briefly, adherent CiA MEF cells were treated with 3 nM (final) rapamycin (sirolimus; Sellekchem #S1039) (ON experiments) or 3 nM rapamycin followed by 30 nM FK1012 (OFF/washout experiments) for prescribed times (2.5 minutes-24 hours). For acute time points, cells were harvested rapidly by washing media out once with PBS, scraping cells off plates with a cell scraper, resuspending in CiA fix buffer, and formaldehyde fixing for subsequent ChIP analyses.
Briefly, for rapid time course assays, adherent CiA MEF cells were washed once in PBS, scraped off plates into fix buffer (50 mM HEPES, 1 mM EDTA, 0.5 mM EGTA, and 100 mM NaCl), resuspended, and immediately formaldehyde fixed. After cross-linking, cells (7-10×10̂6) were washed and sonicated for 13.5 minutes using a Covaris E220 Sonicator (Covaris, Inc., Woburn, Mass.). Chromatin input was reverse crosslinked and evaluated for shearing efficiency and 100-150 μg of chromatin stock was used per immunoprecipitation reaction. […]
as §1
(In general: In qPCR the cycle at which signal appears reflects the starting amount.)

Assay [3] relates to DNA accessibility at the Oct4 locus in CiA Oct4 MEF cells. Put plainly: Transposase (Tn5) chromatin accessibility assay after FK1012 addition. The following applies: post-addition of FK1012 (removal of the BAF complex). Here is the method:
Following various recruitment conditions, 5×10̂4 CiA Oct4 MEF cells were harvested, washed once in PBS, once in RSB buffer (10 mM Tris-HCl, pH 7.4, 10 mM NaCl, 3 mM MgCl2), and centrifuged at 500×g for 5 minutes at 4 degrees C. Cells were then lysed in lysis buffer (500 ul RSB buffer+5 ul 10% NP-40) for 5 minutes on ice, spun at 500×g for 5 minutes, resuspended in Tagment DNA/Enzyme Buffer Mix (Illumina Nextera Sample Preparation Kit, Cat. # FC-121-1030), and incubated for 30 minutes at 37° C. Following Tn5 transposase enzyme reaction, DNA was purified using Quiagen MinElute PCR Purification Kit (Cat #28004). Transposed DNA fragments were amplified via qPCR to the appropriate number of cycles and library was purified using a Quiagen PCR Cleanup Kit eluted in 20 ul of elution buffer (10 mM Tris Buffer, pH 8.0). CiA locus-specific qPCR was performed using primers in Supplemental Table 2.

Where “and” joins values, the source holds several entries; their conditions need not be identical. Equal entries are not always repeated.

Take `CO[C@H]1C[C@@H]2CC[C@@H](C)[C@@](O)(O2)C(=O)C(=O)N2CCCC[C@H]2C(=O)O[C@H]([C@H](C)C[C@@H]2CC[C@@H](O)[C@H](OC)C2)CC(=O)[C@H](C)/C=C(\C)[C@@H](O)[C@@H](OC)C(=O)[C@H](C)C[C@H](C)/C=C/C=C/C=C/1C` [rapamycin]: the “BAF complex recruitment (fold enrichment over baseline by ChIP-qPCR)” value in assay [1] is 20-40 fold and 40-60 fold.

Regarding FK1012, the “Decrease in BAF complex tethering to the Oct4 locus, FK1012 addition versus rapamycin washout (media change)” value in assay [2] (3 nM rapamycin followed by 30 nM FK1012) is “more rapid, robust decreases”. In addition, in assay [2] (post-addition of FK1012, paralleled by reappearance of H3K27Me3 and H2AUb1), the “Time at which PRC2 (Ezh2) and PRC1 (Ring1B) began to reappear” value is roughly 2 h. Moreover, the “Time at which inaccessible chromatin began to reform” value in assay [3] is 2.5 to 5 h.

The values above are taken from patent US20180305424A1, “Methods of Inducibly Targeting Chromatin Effectors and Compositions for Use in the Same” (The Board of Trustees of the Leland Stanford Junior …, priority 2015, published 2018).
